Measured values from patent publication US8883173B2 (priority 2007, dated 2014).
Entries after “also recorded” stand apart in the source; their conditions may differ. Square brackets hold non-standard residues; d marks the D form. Ends that are not written are not given here. NMeV = CN[C@H](C(=O)O)C(C)C

Experiments:
[1] = system: sera from Map infected animals (anti-Map antibodies); type: binding, bovines and goats
[2] = system: IgA, IgM, IgG1 or IgG2 antibodies in sera of Map infected animals; type: binding, bovines
[3] = system: sera from Mav- or Mai-infected human patients; type: binding
[4] = system: sera from M. avium subsp. avium-experimentally infected mouse; assay: ELISA with sera from Mav experimentally infected mouse; type: binding; conditions: FIG. 4B
[5] = system: sera from M. bovis infected bovine; type: binding; conditions: read at 414 nm

For CCCCCCCCCCCCCCCCCCCC(=O)O [lipid moiety, eicosanoic acid, reference compound], the “recognition by sera of Map-infected animals, compared with L5P” value (from here on “recognition by sera … compared with L5P”) [1] was “poorly recognized”.

In the case of “AcNH-DPhe-NMeVal-Ile-Phe-Ala (Ac-[dF][NMeV]IFA) [compound 10]”, the “specific reaction with Map specific anti serum” value (from here on “specific reaction”) [1] is reported as “react specifically”.

In the case of “AcNH-DPhe-NMeVal-Ile-Phe-Ala-OMe (Ac-[dF][NMeV]IFA-OMe; SMILES CC[C@H](C)[C@H](NC(=O)[C@H](C(C)C)N(C)C(=O)[C@@H](Cc1ccccc1)NC(C)=O)C(=O)N[C@@H](Cc1ccccc1)C(=O)N[C@@H](C)C(=O)OC) [Ac5P]”, the “recognition by sera … compared with L5P” value [1] is reported as “recognized as efficiently as the L5P; also recorded: In some cases, the pentapeptide was even better recognized than the whole L5P”.

With “AcNH-DPhe-Val-Ile-Phe-Ala-OMe (Ac-[dF]VIFA-OMe; SMILES CC[C@H](C)[C@H](NC(=O)[C@@H](NC(=O)[C@@H](Cc1ccccc1)NC(C)=O)C(C)C)C(=O)N[C@@H](Cc1ccccc1)C(=O)N[C@@H](C)C(=O)OC) [compound 8]” the “specific reaction” value [1] was “react specifically”.

With “DPhe-NMeVal-Ile-Phe-Ala-OMe ([dF][NMeV]IFA-OMe) [compound 4]” the “antigenic response (ranking among analogues)” value [1] was “best antigenic response”, the “recognition by sera … compared with L5P” value [1] was “recognized at least as efficiently” and the “sensitivity for detection of Map-specific antibodies compared to L5P (1)” value [1] was “higher sensitivity”. The “specific reaction” value [1] was “react specifically”.

For “LipidC20-DPhe-NMeVal-Ile-Phe-Ala [compound 9]”, the “specific reaction” value [1] was “react specifically”.

“LipidC20-DPhe-NMeVal-Ile-Phe-Ala-OMe [L5P]” was tested, and the “anti-L5P IgA in sera” value [2] was “no IgA was detected”, the “anti-L5P IgG1 in sera” value [2] was “present” and the “anti-L5P IgG2 in sera” value [2] was “present”. For the same compound, the “anti-L5P IgM in sera” value [2] was “present”, the “O.D. in ELISA” value [3] was “below 0.2” and the reactivity with sera [4] was “none was reacting”. The “OD in ELISA” value [1] was “above 1,5”, the “specificity compared with PPD” value [1] was “by far more specific than the PPD” and the “O.D. in ELISA” value [5] was “below 0.2”.
